Measured values as given in PubChem BioAssay AID504313 (Emory University Molecular Libraries Screening Center, 2011).
Active and inactive are the calls of the source. The rule behind the calls is not given here.

Each molecule was assayed against X-box-binding protein 1 (Homo sapiens) (UniProt P17861) (assay: inhibitors of XBP1 reporter signal, dose response, counter-screen, cell-based (AID 504313;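 note: CHO cells carrying an XBP1 reporter stimulated with tunicamycin; potency is for inhibition of the tunicamycin-induced reporter signal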)). Conditions: XBP1 reporter cell assay, percent of control.

Row | Structure (SMILES) | IC50
1 | CC(=O)Nc1ccc(NC2=Nc3ccccc3N3C2=Nc2c(c(C)nn2-c2ccccc2)C3c2ccccc2)cc1 (configuration not stated) | inactive
2 | COC(=O)[C@@H]1[C@@H](C(=O)OC)C2(c3ccccc3-c3ccccc32)N(c2ccc(Cl)cc2)N1C#N | > 10 µM (inactive)
3 | O=C1C=CC(=O)N1CCCCCCN1C(=O)C=CC1=O | inactive
4 | Cc1ccc(-n2c(Cl)c(Cl)nc(Cl)c2=O)cc1 | 2.32 µM
5 | CCOC(=O)c1c(/N=C/c2c(O)n(-c3cccc(C)c3)c(=O)[nH]c2=O)sc2c1CCCC2 | 0.53 µM
6 | O=C1N(c2ccccc2)C[C@@H]2C[C@@H](c3cccs3)N3CCC[C@@]123 | 2.84 µM
7 | CCCCCc1ccc(OCCOCCn2c[n+](C)c3ccccc32)c(CCCCC)c1 | inactive
8 | Cn1cnc([N+](=O)[O-])c1S(=O)(=O)c1cccc(Cl)c1 | inactive
9 | Nc1cccc(Nc2nc(OC(C(F)(F)F)C(F)(F)F)nc(OC(C(F)(F)F)C(F)(F)F)n2)c1 | 2.09 µM
10 | C=C1C(=O)O[C@@H]2C[C@@H](C)[C@@H]3C=CC(=O)[C@@]3(C)[C@@H](OC(C)=O)[C@H]12 | 2.2 µM
11 | CCCC(=O)OCCNc1cc(Sc2nc3ccccc3[nH]2)c2nonc2c1[N+](=O)[O-] | inactive
12 | CCc1ccc(OCC(=O)NC(NC(=S)Nc2ccc(C)cc2C)C(Cl)(Cl)Cl)cc1 (configuration not stated) | inactive
13 | COc1ccc(C2CC(c3c(-c4ccccc4)c4cc(Cl)ccc4[nH]c3=O)=NN2S(C)(=O)=O)cc1OC (configuration not stated) | inactive
14 | O=C(CCl)Nc1cccc(-c2cnc3ccccc3n2)c1 | > 10 µM (inactive)
15 | COc1c(CC=C(C)C)cc(C2CC(=O)c3c(O)cc(O)cc3O2)cc1CC=C(C)C (configuration not stated) | inactive
16 | Cc1cc(C(=O)COC(=O)c2ccccc2O)c(C)n1Cc1cccs1 | < 0.16 µM (inactive)
17 | CCOC(=O)Cc1csc(NC(=O)NC2(C(F)(F)F)Oc3cc(Cl)c(Cl)cc3O2)n1 | inactive
18 | Cc1nc(COC(=O)c2cc(O)c3ccccc3c2O)cs1 | > 10 µM (inactive)
19 | N#CC(C#N)=C1C=CC=CN1/C(=C\c1ccccc1Cl)C(=O)c1ccccc1 | inactive

Row | Structure (SMILES) | IC50
20 | O=C(Nc1ccccc1Cl)c1ccccc1Oc1ccc(C(F)(F)F)cc1[N+](=O)[O-] | inactive
21 | O=[N+]([O-])c1ccc(COc2ccc(-c3[nH]ncc3-c3ccccc3)c(O)c2)cc1 | > 10 µM (inactive)
22 | CC(C)c1nnc(NC(=O)c2c(O)c3cccc4c3n(c2=O)CCC4)s1 | 4.37 µM
23 | Cc1nc(Nc2nc(CSc3nc4ccccc4[nH]3)cc(=O)[nH]2)nc2ccccc12 | > 10 µM (inactive)
24 | O=[N+]([O-])c1ccc(S(=O)(=O)CC(CN2CCCCC2)N2CCCCC2)cc1 (configuration not stated) | inactive
25 | COc1ccc(N/N=C(\C=N\O)C(=O)c2ccc(OC)cc2)cc1 | > 10 µM (inactive)
26 | CCOc1ccc(C2C=C(c3ccc(C)cc3)Nc3nnnn32)cc1 (configuration not stated) | > 10 µM (inactive)
27 | Cc1ccc(S(=O)(=O)/N=C2/C=C(Sc3ncn[nH]3)C(=O)c3ccccc32)cc1 | inactive
28 | CCOC(=O)C1=C(O)/C(=C/c2ccc(CNC(=O)C(=O)Nc3ccc(C)cc3)o2)N=C1C | > 10 µM (inactive)
29 | Cc1ccc(C2(c3ccc(C)cc3)CC2C(=O)Nc2ccc([N+](=O)[O-])cc2O)cc1 (configuration not stated) | inactive
30 | CC(C)=NOc1cc(NC(=O)CCl)cc([N+](=O)[O-])c1 | inactive
31 | Oc1cccc(-c2nc3c4c(ncn3n2)-c2ccccc2CC42CCCC2)c1 | > 10 µM (inactive)
32 | Cc1cc(C)c(S(=O)(=O)ON2C(=O)c3ccccc3C2=O)cc1C | > 10 µM (inactive)
33 | COc1ccc(CC(=O)Nc2cccc(-c3nnc(-c4cccc(C)c4)o3)c2)cc1OC | inactive
34 | O=C(c1ccc(Cl)cc1)N1CCC(O)(CSc2ccc(Cl)cc2Cl)CC1 | > 10 µM (inactive)
35 | O/N=C(\c1ccc(Cl)cc1Cl)c1ncc(C(F)(F)F)cc1Cl | 6.07 µM
36 | COc1ccc2nc(Nc3nc(CSc4nc5ccccc5[nH]4)cc(=O)[nH]3)nc(C)c2c1 | > 10 µM (inactive)
37 | COc1ccc(NC(=O)c2cc(-c3cc(C)cc(C)c3O)n[nH]2)cc1Cl | > 10 µM (inactive)
